Reference: patent US20260096569A1, “EDIBLE COATING WITH ANTIMICROBIAL PROPERTIES” (priority 2021, published 2026)
“Also recorded” adds a separate entry of the source. Read-outs that look alike come from different tables or passages of the source.

Legend:
Colletotrichum [1] = assay: Screening for stem end rot (Colletotrichum) infection control, California avocados; type: in vivo
Source text: To screen for infection control of stem end rot (Colletotrichum) with epicatechin, ASM, and MeSA (methyl salicylate), California avocados size 84 were infected with Colletotrichum spores (103 spores/ml) and treated with 0.01% an imidazole antifungal agent, such as Prochloraz, 0.1% epicatechin, 0.01% ASM, or 0.1% MeSA, as indicated. Uninfected and infected controls were not exposed to treatments. […] Disease index is on a scale from 0-1 and takes into account both the percent of fruit infected and the average severity of the infection in the sample group. The average severity is on a scale from 0-4. Percent disease index is calculated as follows: (Percent infected*Average infection severity)/4.

Colletotrichum [2] = assay: Salicylic acid, sodium salicylate and chitosan on stem end rot of infected California avocados; type: in vivo
Method: To determine the impact of salicylic acid, sodium salicylate, and chitosan on stem end rot (Colletotrichum), California avocados size 96 were infected with 10^3 Colletotrichum spores and treated with 0.01% of an imidazole antifungal agent, such as Prochloraz, 0.05% salicylic acid, 0.1% salicylic acid, 0.2% salicylic acid, 1% sodium salicylate, or 1% chitosan+5 mM C10 monoglyceride. Uninfected and infected controls were not exposed to treatments. Following treatment, the percent disease index of stem end rot was determined for each avocado. […] However, the 1% chitosan+5 mM C10 monoglyceride treatment sample size was 14 avocados.

Colletotrichum [3] = assay: Salicylic acid and chitosan combinations on stem end rot of infected Mexican avocados; type: in vivo; settings: infected Mexican avocados size 84, 0.2%, compared with the other treatments
Method: To determine the impact of salicylic acid and chitosan combinations on stem end rot (Colletotrichum), Mexican avocados size 84 were infected with 103 Colletotrichum spores and treated with 0.01% of an imidazole antifungal agent, such as Prochloraz, 0.1% low molecular weight chitosan (1 g/L), 0.2% salicylic acid, or 0.2% salicylic acid+0.1% chitosan. Uninfected and infected controls were not exposed to treatments. Following treatment, the percent disease index of stem end rot was determined for each avocado.

[4] = Avocado storage: CO2 production (respiration) and mass loss, salicylic acid; type: in vivo; settings: Mexican avocados size 60 stored about one month, 0.6 g/L, two days
Source text: (§1) Avocados were Mexican avocados size 60. […] Avocados were monitored for two days for CO2 production (respiration) rate, mass loss, incidence of stem end rot, and severity of stem end rot disease. […] This could be due to changes in the barrier stability or barrier properties when salicylic acid is combined with the mixture of glycerol monostearate and sodium stearate. When comparing the mass loss factor using the salicylic acid+the mixture of glycerol monostearate and sodium stearate to the mixture itself, there was a 0.35× improvement. Severity of stem end rot disease was measured on a 1-4 stem end rot severity scale (STR).

stem end rot [5] = assay: Avocado storage: incidence and severity of stem end rot, salicylic acid; type: in vivo; settings: Mexican avocados size 60, 0.6 g/L salicylic acid, two days
Source text: as §1

Colletotrichum [6] = assay: Salicylic acid and pH on stem end rot of infected Mexican avocados; type: in vivo
Method: To determine the impact of salicylic acid and pH on stem end rot (Colletotrichum), Colletotrichum disease indices of avocados were determined with various treatments. […] Mexican avocados size 84 were infected with 103 Colletotrichum spores and treated with 1M NaOH pH 6, 0.01% of an imidazole antifungal agent, such as Prochloraz, 0.2% salicylic acid pH 2.5, or 0.2% salicylic acid pH 6. pH was adjusted with 1M NaOH. Uninfected and infected controls were not exposed to treatments. Infection rate was near 100% for the water treated control. Treatment of infected avocados with pH 2.5. […] Treatment with salicylic acid at pH 2.5 reduced percent infection by nearly 70%. However, the percent disease index remained at 100% during treatment with salicylic acid at a pH of 6 (FIG. 7).

[7] = Avocado storage, five days: CO2 production (respiration), salicylic acid and mixture; type: in vivo; settings: Mexican avocados size 60, 0.6 g/L or 2.0 g/L salicylic acid
Source text: (§2) To determine the impact of salicylic acid and a mixture of 94% glycerol monostearate and a 6% fatty acid salt combinatorial treatment on avocado, Mexican avocados size 60 were exposed to 0.6 g/L salicylic acid, 2.0 g/L salicylic acid, 30 g/L a mixture of glycerol monostearate and sodium stearate, or 0.6 g/L salicylic acid+30 g/L a mixture of glycerol monostearate and sodium stearate treatments. To treat, avocados were removed form cold storage and left at room temperature for four hours. Avocados were then dipped in treatments as indicated and dried in a drying tunnel. Uninfected controls were not exposed to treatments. Avocados were monitored for five days for CO2 production (respiration) rate, mass loss, incidence of stem end rot, and severity of stem end rot disease on a 1-4 stem end rot severity scale (STR). The experiment was concluded when untreated avocados reached a ripeness of <35 shore. […] This may be due to changes in barrier stability or properties.

stem end rot [8] = assay: Avocado storage, five days: incidence and severity of stem end rot; type: in vivo; settings: Mexican avocados size 60, five days
Source text: as §2

Colletotrichum [9] = assay: Sequential salicylic acid and mixture treatments on stem end rot of infected Mexican avocados; type: in vivo
Method: The pH was adjusted with 1M NaOH. Salicylic acid treatments were performed and dried before subsequent treatments with the mixture of glycerol monostearate and sodium stearate were performed for combinatorial treatments. Controls with salicylic acid treatment and a subsequent treatment with water were also performed. Uninfected controls were not exposed to treatments. Following treatment, the disease index of stem end rot was determined for each avocado. […] Salicylic acid was effective in treatments with salicylic acid first and the mixture of glycerol monostearate and sodium stearate treatment second (FIG. 9).

[10] = Viscosity and pH of salicylic acid and mixture combinations; type: physicochemical; settings: salicylic acid 0.15-1.0 g/L in water
Source text: The viscosity decreased as the mixture concentration increased, and as the salicylic acid concentration increased (FIG. 11A). […] The maximum amount of salicylic acid that could be added was about 2% of the weight of the mixture (FIG. 10).

Colletotrichum [11] = settings: cited from earlier work
[12] = Mixture and carvacrol on avocados: respiration and mass loss; type: in vivo
Method: (§3) Fifty-four avocados were tested per treatment. Avocados were dipped into treatment liquids and allowed to dry. Respiration (CO2 production), mass loss, disease indices of stem end rot and vascular browning were measured. […] The timing of spoilage was affected by treatments (FIG. 14).

stem end rot [13] = assay: Mixture and carvacrol on avocados: incidence of stem end rot; type: in vivo; settings: 10 g/L carvacrol alone
Method: as §3

vascular browning = assay: Mixture and carvacrol on avocados: incidence of vascular browning; type: in vivo; settings: 10 g/L carvacrol alone
Method: as §3

[14] = Organic mixture and carvacrol on wounded organic lemons: mass loss and skin damage; type: in vivo; settings: carvacrol alone (5 g/L carvacrol+0.25 g/L sodium stearate)
Source text: To determine the impact of an organic mixture of glycerol monostearate and sodium stearate mixed with carvacrol on mass loss and mold incidence in organic lemons, unwaxed California organic lemons sized 140 were exposed to 30 g/L an organic mixture of glycerol monostearate and sodium stearate mixed, 30 g/L an organic mixture of glycerol monostearate and sodium stearate+5 g/L carvacrol, or 5 g/L carvacrol+0.25 g/L sodium stearate, or were untreated. Batches of 140 lemons per condition were used. Lemons were physically wounded with the stem of another lemon, dipped into a treatment or left untreated, and dried in ambient conditions. Mass loss and disease incidence (% of group with mold) were measured. The addition of carvacrol to an organic mixture of glycerol monostearate and sodium stearate mixed with carvacrol increased mass loss factor to 1.7×compared to the organic mixture of glycerol monostearate and sodium stearate mixed with carvacrol alone, which was 1.3× of the untreated group (FIG. 15A). The addition of carvacrol to an organic mixture of glycerol monostearate and sodium stearate mixed with carvacrol reduced the incidence of mold ˜12% from untreated lemons and 22% from an organic mixture of glycerol monostearate and sodium stearate mixed with carvacrol alone treated lemons after 6.5 days of ambient storage (FIG. 15B).

[15] = Mixture and carvacrol on organic lemons in cold storage: mass loss and quality; type: in vivo; settings: carvacrol alone (10 g/L carvacrol+50 g/L ethanol), dried in ambient conditions
Method: Batches of 120 lemons per condition were used. Lemons were dipped into a treatment or left untreated, dried in ambient conditions, and stored at 8° C., 80% relative humidity for several weeks. Mass loss was measured.

[16] = Mixture with increasing carvacrol and ethanol on organic lemons: mass loss and quality; type: in vivo; settings: heated drying in a drying tunnel
Method: Specifically, 1 g/L carvacrol+5 g/L ethanol, 2 g/L carvacrol+10 g/L ethanol, 3 g/L carvacrol+15 g/L ethanol, 6 g/L carvacrol+30 g/L ethanol, or 8 g/L carvacrol+40 g/L ethanol. Batches of 120 lemons per condition were used. Lemons were dipped into a treatment or left untreated, dried in heated conditions in a drying tunnel, and stored at ambient conditions. Mass loss was measured.

[17] = infected California avocados size 84, treatment 0.01%

Which “percent disease index for stem end rot” value (Colletotrichum [1]; [17]) does the source give for `CCCN(CCOc1c(Cl)cc(Cl)cc1Cl)C(=O)n1ccnc1` [Prochloraz] here?
Its value is “effective at decreasing the observed disease index”.

And the “percent disease index of stem end rot” value (Colletotrichum [2]; infected California avocados size 96, 0.01%)?
Its value is “effective at decreasing the disease index compared to the infected control”.

For `O=C(O)c1ccccc1O` [salicylic acid], which “percent disease index of stem end rot” value (Colletotrichum [2]; infected California avocados size 96, 0.05%) is on record?
The value was “reduced the stem end rot disease index”.

And the “percent disease index of stem end rot” value (Colletotrichum [2]; infected California avocados size 96, 0.1%)?
Its value is “reduced the stem end rot disease index”.

And the “percent disease index of stem end rot” value (Colletotrichum [2]; infected California avocados size 96, 0.2%)?
Its value is “reduced the stem end rot disease index; also recorded: most effective”.

What about the “percent disease index of stem end rot” value (Colletotrichum [3]) of the same compound?
Its value is “greatest effect”.

And the “CO2 production (respiration) rate” value [4]?
Its value is “increased the respiration compared to the control”.

What about the “incidence of stem end rot” value (stem end rot [5]) of the same compound?
Its value is “not incidence”.

And the “severity of stem end rot disease (1-4 STR scale)” value (stem end rot [5])?
Its value is “reduce the severity”.

What about the “reduction of percent infection” value (Colletotrichum [6]; infected Mexican avocados size 84, 0.2% salicylic acid pH 2.5) of the same compound?
Its value is roughly 70%.

What about the percent disease index (Colletotrichum [6]; infected Mexican avocados size 84, 0.2% salicylic acid pH 6) of the same compound?
The percent disease index was 100%.

And the “CO2 production (respiration)” value [7]?
Its value is “did not increase CO2 production (respiration) compared to the control”.

And the “incidence of stem end rot” value (stem end rot [8])?
The value was “slight reductions”.

What about the “severity of stem end rot (1-4 STR scale)” value (stem end rot [8]) of the same compound?
The value was “slight reductions”.

And the “percent disease index of stem end rot versus infected water control” value (Colletotrichum [9]; infected Mexican avocados size 84, decreased concentration (0.06%), pH 2.3)?
Its value is “more effective than then infected water control treatment”.

What about the “percent disease index of stem end rot, effect of decreasing concentration” value (Colletotrichum [9]; infected Mexican avocados size 84, from 0.2% to 0.06%, pH 2.3) of the same compound?
The value was “reduced the effectiveness of the treatment”.

And the “percent disease index of stem end rot” value (Colletotrichum [9]; salicylic acid treatment dried, then a second treatment (mixture or water))?
Its value is “reduced the percent disease indices”.

What about the pH in water [10] of the same compound?
The pH in water was 2-2.5.

And the germination (Colletotrichum [11]; pH 2.5)?
Its germination is “inhibits germination”.

What about the germination (Colletotrichum [11]; pH raised to pH 6) of the same compound?
Its germination is “loses its inhibitory effect”.

Which “percent disease index for stem end rot” value (Colletotrichum [1]; [17]) does the source give for `CSC(=O)c1cccc2nnsc12` [ASM, Acibenzolar-S-Methyl] here?
Its value is “significantly smaller disease indices compared to the infected control”.

Which results are given for `Cc1ccc(C(C)C)cc1O` [carvacrol]?
respiration (CO2 production) ([12]; California avocados sized 96, 10 g/L carvacrol alone): may have accelerated respiration; mass loss ([12]; California avocados sized 96, 10 g/L carvacrol, versus untreated avocados): negligible effect on mass loss; disease incidence of stem end rot (stem end rot [13]): almost eliminated disease incidence; disease incidence of vascular browning (vascular browning): almost eliminated disease incidence; damage to lemon skin [14]: damaged the lemon skin; damage to lemon skin [15]: skin burns; also recorded: damaged the lemon skin; carvacrol lemon skin burns [16]: prevented carvacrol lemon skin burns

For `COC(=O)c1ccccc1O` [MeSA, methyl salicylate], which “percent disease index for stem end rot” value (Colletotrichum [1]; infected California avocados size 84, treatment 0.1%) is on record?
The value was “no observed effect”.

Which “percent disease index of stem end rot” value (Colletotrichum [2]; infected California avocados size 96, 1%) does the source give for `O=C([O-])c1ccccc1O.[Na+]` [sodium salicylate] here?
Its value is “did not significantly reduce the disease index”.
